Where two headings read alike, the source gives them in different places.
How the values were obtained:
AntR [1] = target: T1, AntR (Comamonas testosteroni, UniProt A0A096F4H2); format: binding, Comamonas testosterone JL40; details: read-out: apparent Kd (ITC)
AntR [2] = target: T1, AntR; format: cell-based, Comamonas testosterone JL40
AntR Y96W derivative = AntR Y96W derivative (Comamonas testosteroni, UniProt A0A096F4H2, Y97W); format: binding, Comamonas testosterone JL40; details: read-out: apparent Kd (fluorescence quenching); pH 7.8
AntR Y96W derivative, sequence (A0A096F4H2 1-124 Y97W): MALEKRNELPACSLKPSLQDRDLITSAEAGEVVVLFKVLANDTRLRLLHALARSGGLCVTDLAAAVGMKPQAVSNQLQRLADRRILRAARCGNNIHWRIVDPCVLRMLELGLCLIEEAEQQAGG

AntR C113S = assay: Two-plasmid gfp biosensor with AntR C113S mutant in E. coli AW3110; format: cell-based, Comamonas testosterone JL40; details: 0.2% arabinose, E. coli AW3110(DE3), Figure 3d
AntR C103S = assay: Two-plasmid gfp biosensor with AntR C103S mutant in E. coli AW3110; format: cell-based, Comamonas testosterone JL40; details: 0.2% arabinose, E. coli AW3110(DE3), Figure 3c
[3] = system: AntR binding to the ant operator/promoter DNA; format: biochemical, Comamonas testosterone JL40

T1 sequence (A0A096F4H2 1-124): as the sequence (A0A096F4H2 1-124 Y97W) above, with W97Y counted along it

| Molecule | Kd (AntR [1]) [µM] | induction of gfp expression in biosensor (AntR [2]) | response of AntR repressor to metalloid (introductory summary) (AntR [2]) | Kd (AntR Y96W derivative) [µM] | response of C113S mutant biosensor compared with the wild type (AntR C113S) | response of C103S mutant biosensor compared with the wild type (AntR C103S) | effect of metal(loid) on AntR mobility shift of ant promoter probe (EMSA) [3] | induction of gfp expression in biosensor (AntR [2]; 5 µM metalloid, 0.2% arabinose, E. coli AW3110Δars, wild-type AntR) |
| --- | --- | --- | --- | --- | --- | --- | --- | --- |
| O[As](O)O [As(III), arsenite] | 440 | little gfp expression | only weakly | ~160 |  |  |  |  |
| C[As](O)O [MAs(III), methylarsenite] |  | induced gfp expression | responds |  | reduced responses | reduced responses |  |  |
| antimonite [Sb(III)] | 57 |  | responds |  | reduced responses | reduced responses | mobility shift decreased | induced gfp expression |
